Laboratory results taken from patent publication EP1061897B1, “GLYCYLGLYCINE OLEAMIDE IN DERMO-COSMETOLOGY” (Pierre Fabre Dermo-Cosmetique, priority 1998, dated 1999).
Residues, ends and D or L forms follow the SMILES beside them. *: point of attachment. Oleoyl = CCCCCCCC/C=C\CCCCCCCC(=O)*

How the values were obtained:
collagène de type I = assay: in vitro acellular glycation of type I collagen, thiobarbituric acid assay; format: biochemical; conditions: glucose 250 mM, 37°C, 8 days, figure 1
Description: L'activité inhibitrice de la glycylglycine est évaluée et comparée à celle de l'aminoguanidine en utilisant un modèle in vitro, acellulaire, de glycation du collagène de type I, selon le protocole suivant.
L'actif anti-glyquant est introduit dans une solution contenant du glucose 250 mM et du collagène de type I. L'aminoguanidine agit notamment en bloquant le groupement carbonyle du produit d'Amadori, stoppant ainsi la glycation à son stade précoce (M. Brownlee et coll., Science, 1986 (6), 232, 1629-1632).
Le mélange est incubé à 37°C pendant 8 jours puis le glucose non fixé est éliminé par dialyse. Après lyophilisation du collagène, on procède à un dosage à l'acide thiobarbiturique pour déterminer le taux de glycation.
Cette méthode permet le dosage de sucres liés aux cétoamines.
Le lyophilisat, après être pesé, est dissous dans l'acide oxalique 0,5 M. On laisse incuber à 120°C pendant 1 heure, puis à 40°C pendant 45 min après avoir ajouté de l'acide thiobarbiturique à 50 mM.
La densité optique du mélange, lue à 443 nm, est proportionnelle au taux de glycation exprimé en nmoles HMF formé par mg de lyophilisat.

élastase = assay: in vitro acellular anti-elastase test, elastase diffusion in agarose gel containing orcein-stained insoluble elastin; format: biochemical; conditions: figure 2
From the text: La méthode utilisée est une technique in vitro acellulaire, basée sur la diffusion d'élastase dans un gel d'agarose contenant de l'élastine insoluble colorée par l'orcéïne et dispersée dans le gel avec ou sans principe actif. La lecture du diamètre de lyse permet de calculer le pourcentage d'inhibition de l'enzyme par le principe actif.

fibroblastes = assay: Bell-type dermal equivalent, contraction kinetics of fibroblast-seeded collagen lattice; format: cell-based; conditions: followed over 7 days; 0,005 % oléamide de glycylglycine, 0,003 % acide oléique, 0,002 % gly-gly; figure 3
From the text: Pour objectiver cette activité, on utilise le modèle cellulaire de derme équivalent de type Bell. Il permet, grâce à une mise en culture de fibroblastes sur un support de collagène, de reproduire in vitro une structure tissulaire tridimensionnelle et de rendre compte des interactions fibroblaste-matrice, le fibroblaste étant impliqué dans le maintien de la structure dermique.
La capacité des fibroblastes, ensemencés dans un milieu défini avec ou sans actif, à organiser les fibres de collagène les unes par rapport aux autres et de les faire se rétracter, se concrétise par une diminution de surface de ce derme. Ce test traduit la capacité du fibroblaste à modeler, par ce biais, un véritable tissu. On suit donc la cinétique de contraction de ce derme sur 7 jours, cette cinétique étant liée au métabolisme de la cellule.
Les concentrations en actifs employées correspondent à des doses auxquelles ces actifs se sont avérés non cytotoxiques et non prolifératifs.

Row | SMILES | activité anti-glyquante (taux de glycation, nmoles HMF/mg) (collagène de type I; at 100 mM, compared with aminoguanidine) | activité anti-glyquante (taux de glycation, nmoles HMF/mg) (collagène de type I; 1 mM, 10 mM and 100 mM) | activité anti-élastase (aire de lyse) (élastase) | cinétique de rétraction (pourcentage de rétraction) (fibroblastes)
1 | NCC(=O)NCC(=O)O [glycylglycine] (H-Gly-Gly-OH) | activité équivalent à celle de l'aminoguanidine | avec un effet-dose | – | –
2 | CCCCCCCC/C=C\CCCCCCCC(=O)NCC(=O)NCC(=O)O [oléamide de glycylglycine] (Oleoyl-Gly-Gly-OH) | – | – | activité anti-élastase importante | plus efficace que l'acide oléique, l'association acide oléique/glycylglycine, la glycylglycine
